In one assay the target is BRD4 (BDII_E352-M457) (Homo sapiens (Human), UniProt O60885). Put plainly: TR-FRET bromodomain binding assay, BRD4 BDII. The settings on record: mean Ki, calculated from IC50, probe Kd and probe concentration. The procedure:
(§1) A time-resolved fluorescence resonance energy transfer (TR-FRET) assay was used to determine the affinities of compounds of the Examples listed in Table 1 for each bromodomain of BRD4. His-tagged first (BDI: amino acids K57-E168) and second (BDII: amino acids E352-M457) bromodomains of BRD4 were expressed and purified. An Alexa647-labeled BET-inhibitor was used as the fluorescent probe in the assay.
(§2) Compound dilution series were prepared in DMSO via an approximately 3-fold serial dilution. Compound dilutions were added directly into white, low-volume assay plates (Perkin Elmer Proxiplate 384 Plus#6008280) using a Labcyte Echo in conjunction with Labcyte Access and Thermo Multidrop CombinL robotics. Compounds were then suspended in eight microliters (μL) of assay buffer (20 mM Sodium Phosphate, pH 6.0, 50 mM NaCl, 1 mM Ethylenediaminetetraacetic acid disodium salt dihydrate, 0.01% Triton X-100, 1 mM DL-Dithiothreitol) containing His-tagged bromodomain, Europium-conjugated anti-His antibody (Invitrogen PV5596) and Alexa-647-conjugated probe.
(§3) The final concentration of 1× assay mixture contained 2% DMSO, 12 nM His tagged BRD4 (BDI_K57-E168) and 100 nM probe or 4 nM His tagged BRD4 (BDII_E352-M457) and 30 nM probe, and 1 nM Europium-conjugated anti-His-tag antibody, and compound concentrations in the range of: 49.02 μM-0.61 nM or 0.98 μM-0.15 nM.
(§4) After a one-hour equilibration at room temperature, TR-FRET ratios were determined using an Envision multilabel plate reader (Ex 340, Em 495/520).
(§5) TR-FRET data were normalized to the means of 24 no-compound controls (“high”) and 8 controls containing 1 μM un-labeled probe (“low”). Percent inhibition was plotted as a function of compound concentration and the data were fit with the 4 parameter logistic equation to obtain IC50s. Inhibition constants (Ki) were calculated from the IC50s, probe Kd and probe concentration.

The next assay addresses BRD4 (BDI_K57-E168) (Homo sapiens (Human), UniProt O60885). The assay can be described thus: TR-FRET bromodomain binding assay, BRD4 BDI. The settings on record: mean Ki, calculated from IC50, probe Kd and probe concentration. How it is done:
as §1, §2, §3, §4, §5

Regarding `CCNC(=O)c1cc2c(-c3cc(C(O)(CC)CCc4ccccc4)cnc3Oc3c(C)cccc3C)cn(C)c(=O)c2[nH]1` (stereo not shown) [Example 14, 4-[2-(2,6-dimethylphenoxy)-5-(3-hydroxy-1-phenylpentan-3-yl)pyridin-3-yl]-N-ethyl-6-methyl-7-oxo-6,7-dihydro-1H-pyrrolo[2,3-c]pyridine-2-carboxamide], the inhibition constant Ki at BRD4 (BDII_E352-M457) is 2.3 nM; on BRD4 (BDI_K57-E168), 965 nM.
The matching figures for `CCNC(=O)c1cc2c(-c3cc(C(O)(CC)c4ccc(F)cc4)cnc3Oc3c(C)cccc3C)cn(C)c(=O)c2[nH]1` (stereo not shown) [Example 9, 4-{2-(2,6-dimethylphenoxy)-5-[1-(4-fluorophenyl)-1-hydroxypropyl]pyridin-3-yl}-N-ethyl-6-methyl-7-oxo-6,7-dihydro-1H-pyrrolo[2,3-c]pyridine-2-carboxamide]: 3.8 nM and 601 nM.
Consider “N-tert-butyl-4-[2-(2,6-dimethylphenoxy)-5-(2-hydroxypropan-2-yl)pyridin-3-yl]-6-methyl-7-oxo-6,7-dihydro-1H-pyrrolo[2,3-c]pyridine-2-carboxamide [Example 50]”, for which the Ki was 1.3 nM on BRD4 (BDII_E352-M457) and 318 nM on BRD4 (BDI_K57-E168).
On the same counts, the results for `Cc1cc(F)cc(C)c1Oc1ccc(C(C)(O)CF)cc1-c1cn(C)c(=O)c2[nH]c(C(=O)NC(C)(C)C)cc12` (stereo not shown) [Example 87, N-tert-butyl-4-[2-(4-fluoro-2,6-dimethylphenoxy)-5-(1-fluoro-2-hydroxypropan-2-yl)phenyl]-6-methyl-7-oxo-6,7-dihydro-1H-pyrrolo[2,3-c]pyridine-2-carboxamide] are 2.8 nM and 501 nM.
As for `CCNC(=O)c1cc2c(-c3cc(C(C)(O)CO)ccc3Oc3c(C)cccc3Cl)cn(C)c(=O)c2[nH]1` (stereo not shown) [Example 115, 4-[2-(2-chloro-6-methylphenoxy)-5-(1,2-dihydroxypropan-2-yl)phenyl]-N-ethyl-6-methyl-7-oxo-6,7-dihydro-1H-pyrrolo[2,3-c]pyridine-2-carboxamide], the Ki at BRD4 (BDII_E352-M457) was 1.4 nM; at BRD4 (BDI_K57-E168), 323 nM.
For the compound `CCNC(=O)c1cc2c(-c3cc(C4(O)CCCC4)cnc3Oc3c(C)cccc3C)cn(C)c(=O)c2[nH]1` [Example 6, 4-[2-(2,6-dimethylphenoxy)-5-(1-hydroxycyclopentyl)pyridin-3-yl]-N-ethyl-6-methyl-7-oxo-6,7-dihydro-1H-pyrrolo[2,3-c]pyridine-2-carboxamide], the Ki was 2.3 nM on BRD4 (BDII_E352-M457) and 273 nM at BRD4 (BDI_K57-E168).
The matching figures for `CCNC(=O)c1cc2c(-c3cc(C(C)(O)C(F)(F)F)cnc3Oc3c(C)cc(F)cc3C)cn(C)c(=O)c2[nH]1` (stereo not shown) [Example 79, N-ethyl-4-[2-(4-fluoro-2,6-dimethylphenoxy)-5-(1,1,1-trifluoro-2-hydroxypropan-2-yl)pyridin-3-yl]-6-methyl-7-oxo-6,7-dihydro-1H-pyrrolo[2,3-c]pyridine-2-carboxamide]: 2.5 nM and 225 nM.
The matching figures for `CCNC(=O)c1cc2c(-c3cc(C(O)(CC)C(C)CC)cnc3Oc3c(C)cccc3C)cn(C)c(=O)c2[nH]1` (stereo not shown) [Example 13, 4-[2-(2,6-dimethylphenoxy)-5-(3-hydroxy-4-methylhexan-3-yl)pyridin-3-yl]-N-ethyl-6-methyl-7-oxo-6,7-dihydro-1H-pyrrolo[2,3-c]pyridine-2-carboxamide]: 2 nM and 114 nM.
With `Cc1cc(F)cc(C)c1Oc1ccc(C(C)(C)O)cc1-c1cn(C)c(=O)c2[nH]c(C(=O)NC3(C)CC3(F)F)cc12` (stereo not shown) [Example 60, N-(2,2-difluoro-1-methylcyclopropyl)-4-[2-(4-fluoro-2,6-dimethylphenoxy)-5-(2-hydroxypropan-2-yl)phenyl]-6-methyl-7-oxo-6,7-dihydro-1H-pyrrolo[2,3-c]pyridine-2-carboxamide], the Ki was 7.5 nM on BRD4 (BDII_E352-M457) and 3510 nM on BRD4 (BDI_K57-E168).
The matching figures for `CCNC(=O)c1cc2c(-c3cc(C(O)(c4ccc(F)cc4)C4CC4)cnc3Oc3c(C)cccc3C)cn(C)c(=O)c2[nH]1` (stereo not shown) [Example 23, 4-{5-[cyclopropyl (4-fluorophenyl)hydroxymethyl]-2-(2,6-dimethylphenoxy)pyridin-3-yl}-N-ethyl-6-methyl-7-oxo-6,7-dihydro-1H-pyrrolo[2,3-c]pyridine-2-carboxamide]: 3.2 nM and 701 nM.
The matching figures for `CCNC(=O)c1cc2c(-c3cc(C(C)(O)C(F)(F)F)ccc3Oc3c(C)cc(F)cc3C)cn(C)c(=O)c2[nH]1` (stereo not shown) [Example 86, N-ethyl-4-[2-(4-fluoro-2,6-dimethylphenoxy)-5-(1,1,1-trifluoro-2-hydroxypropan-2-yl)phenyl]-6-methyl-7-oxo-6,7-dihydro-1H-pyrrolo[2,3-c]pyridine-2-carboxamide]: 1.4 nM and 416 nM.
On the same counts, the results for `CCNC(=O)c1cc2c(-c3cc(C(C)(O)CC(C)C)ccc3Oc3c(C)cccc3C)cn(C)c(=O)c2[nH]1` (stereo not shown) [Example 105, 4-[2-(2,6-dimethylphenoxy)-5-(2-hydroxy-4-methylpentan-2-yl)phenyl]-N-ethyl-6-methyl-7-oxo-6,7-dihydro-1H-pyrrolo[2,3-c]pyridine-2-carboxamide] are 2.5 nM and 1340 nM.
`Cc1cc(F)cc(Cl)c1Oc1ncc(C(C)(C)O)cc1-c1cn(C)c(=O)c2[nH]c(C(=O)NC3(C)CC3(F)F)cc12` (stereo not shown) [Example 62, 4-[2-(2-chloro-4-fluoro-6-methylphenoxy)-5-(2-hydroxypropan-2-yl)pyridin-3-yl]-N-(2,2-difluoro-1-methylcyclopropyl)-6-methyl-7-oxo-6,7-dihydro-1H-pyrrolo[2,3-c]pyridine-2-carboxamide]: the Ki on BRD4 (BDII_E352-M457) is 10.2 nM; on BRD4 (BDI_K57-E168), 1110 nM.
On the same counts, the results for `Cc1cccc(Cl)c1Oc1ncc(C(C)(C)O)cc1-c1cn(C)c(=O)c2[nH]c(C(=O)NC(C)(C)C(F)(F)F)cc12` [Example 38, 4-[2-(2-chloro-6-methylphenoxy)-5-(2-hydroxypropan-2-yl)pyridin-3-yl]-6-methyl-7-oxo-N-(1,1,1-trifluoro-2-methylpropan-2-yl)-6,7-dihydro-1H-pyrrolo[2,3-c]pyridine-2-carboxamide] are 5.7 nM and 241 nM.
Regarding `CCNC(=O)c1cc2c(-c3cc(C(C)(O)C(C)CC)cnc3Oc3c(C)cccc3C)cn(C)c(=O)c2[nH]1` (stereo not shown) [Example 20, 4-[2-(2,6-dimethylphenoxy)-5-(2-hydroxy-3-methylpentan-2-yl)pyridin-3-yl]-N-ethyl-6-methyl-7-oxo-6,7-dihydro-1H-pyrrolo[2,3-c]pyridine-2-carboxamide], the inhibition constant (Ki) at BRD4 (BDII_E352-M457) is 3.1 nM; at BRD4 (BDI_K57-E168), 363 nM.
Regarding `CCNC(=O)c1cc2c(-c3cc(C(C)(C)O)cnc3Oc3c(C)cccc3C(F)(F)F)cn(C)c(=O)c2[nH]1` [Example 48, N-ethyl-4-{5-(2-hydroxypropan-2-yl)-2-[2-methyl-6-(trifluoromethyl)phenoxy]pyridin-3-yl}-6-methyl-7-oxo-6,7-dihydro-1H-pyrrolo[2,3-c]pyridine-2-carboxamide], the Ki was 6 nM on BRD4 (BDII_E352-M457) and 1600 nM on BRD4 (BDI_K57-E168).
In the case of `CCNC(=O)c1cc2c(-c3cc(C(C)(O)c4ccc(F)cc4)cnc3Oc3c(C)cccc3C)cn(C)c(=O)c2[nH]1` (stereo not shown) [Example 17, 4-{2-(2,6-dimethylphenoxy)-5-[1-(4-fluorophenyl)-1-hydroxyethyl]pyridin-3-yl}-N-ethyl-6-methyl-7-oxo-6,7-dihydro-1H-pyrrolo[2,3-c]pyridine-2-carboxamide], the values for the Ki at BRD4 (BDII_E352-M457) and on BRD4 (BDI_K57-E168) were 3 nM and 467 nM, respectively.
Turning to `CCNC(=O)c1cc2c(-c3cc(C(C)(C)O)cnc3Oc3c(C)cc(F)cc3Cl)cn(C)c(=O)c2[nH]1` [Example 52, 4-[2-(2-chloro-4-fluoro-6-methylphenoxy)-5-(2-hydroxypropan-2-yl)pyridin-3-yl]-N-ethyl-6-methyl-7-oxo-6,7-dihydro-1H-pyrrolo[2,3-c]pyridine-2-carboxamide], the results for the Ki on BRD4 (BDII_E352-M457) and on BRD4 (BDI_K57-E168) were 0.9 nM and 325 nM, respectively.
As for `CCNC(=O)c1cc2c(-c3cc(C(C)(C)O)cnc3Oc3c(Cl)cc(F)cc3Cl)cn(C)c(=O)c2[nH]1` [Example 101, 4-[2-(2,6-dichloro-4-fluorophenoxy)-5-(2-hydroxypropan-2-yl)pyridin-3-yl]-N-ethyl-6-methyl-7-oxo-6,7-dihydro-1H-pyrrolo[2,3-c]pyridine-2-carboxamide], the figures for the Ki on BRD4 (BDII_E352-M457) and at BRD4 (BDI_K57-E168) were 2.5 nM and 110 nM, respectively.
For the compound `CCNC(=O)c1cc2c(-c3cc(C(O)(CC)C4CC4)cnc3Oc3c(C)cccc3C)cn(C)c(=O)c2[nH]1` (stereo not shown) [Example 12, 4-[5-(1-cyclopropyl-1-hydroxypropyl)-2-(2,6-dimethylphenoxy)pyridin-3-yl]-N-ethyl-6-methyl-7-oxo-6,7-dihydro-1H-pyrrolo[2,3-c]pyridine-2-carboxamide], the values for the inhibition constant Ki at BRD4 (BDII_E352-M457) and at BRD4 (BDI_K57-E168) were 1.9 nM and 97 nM, respectively.

The term Ki denotes a measure of affinity in units of concentration, obtained from inhibition or displacement.

(Values after patent US10633379B2, “Bromodomain inhibitors” (AbbVie Inc., priority 2016, dated 2020).)
